The results in this text go back to US9949473B2, “Coagulation controlling agents and devices comprising the same” (Becton, Dickinson and Company, priority 2011, dated 2018).

In assay [1] the target is T1, thrombin (Homo sapiens, UniProt P00734).
T1 construct: In preferred embodiments, thrombin is alpha-thrombin
Kind of assay: Accelerated stability of sprayed thrombin with para-aminobenzamidine (thrombin activity on Stago Compact). It is filed as biochemical. The conditions noted are these: para-aminobenzamidine about 3 mM in about 5 mM citrate or isocitrate pH about 6.1; sealed tubes at about 43° C., about 75% relative humidity; compared to citrates alone; FIG. 6, FIG. 7. On the procedure: The coagulation controlling agent para-aminobenzamidine was evaluated to determine if it improved the stability of sprayed thrombin under accelerated stability conditions. Without wishing to be bound by any particular theory, it is believed that para-aminobenzamidine stabilizes the spray-dried thrombin under conditions of extremely high humidity, where thrombin autolytic degradation can be rapid, even at room temperature.
Thrombin was prepared in about 5 mM citrate or isocitrate at a pH of about 6.1. Para-aminobenzamidine was added at a concentration of about 3 mM. About 16 μL of this solution was sprayed into 13×100 mm PET tubes. The tubes were dried by forced hot air, and evacuated. Sealed tubes were then placed in a controlled environmental chamber previously equilibrated to about 43° C. and about 75% relative humidity. At various time intervals, the tubes were removed and evaluated for thrombin activity on the Stago Compact coagulation analyzer. The error bars indicate the 95% confidence interval for the thrombin activity with 5 replicates.

Assay [2] concerns reconstituted commercial lyophilized human plasma. Kind of assay: Clotting time of plasma with thrombin/protamine solutions on Stago Compact coagulation analyzer. Type of assay: biochemical. Particulars: thrombin and protamine in about 20 mM citrate pH about 6, mixed about 1:1 with plasma; FIG. 3. The protocol: Solutions of thrombin and protamine in about 20 mM of citrate at a pH of about 6 were mixed in a ratio of about 1:1 with reconstituted commercial lyophilized human plasma and tested on a Stago Compact coagulation analyzer. The resulting clotting times were measured as a function of thrombin and protamine concentration for a given thrombin concentration. The concentrations listed on the graph of FIG. 3 represent the thrombin/protamine solutions before being mixed with the plasma.

Assay [3] deals with freshly drawn human blood. The experiment in a line: Visual scoring of fibrin mass in serum from blood clotted in thrombin/protamine tubes. The conditions noted are these: protamine about 0.5 mg/mL; FIG. 2. On the procedure: Protamine sulfate was first resuspended in about 0.5 M hydrochloric acid at a concentration of about 250 mg/mL. This solution was then titrated to a pH of about 6 with 5 N sodium hydroxide. This titration to about pH 6 was performed immediately since prolonged exposure of protamine to low pH, it was believed, would result in hydrolysis and loss of activity. It is also believed that more dilute solutions of hydrochloric acid could be used for preparing the protamine solution.
The protamine solution was then mixed in a ratio of about 1:1 with a solution of about 1250 U/mL of thrombin in about 40 mM sodium citrate at about pH 6.0, containing about 20 mg/mL of a siloxane alkoxylate surfactant, and 2 mg/mL polyvinylpyrrolidone (PVP).
The resulting reagent was filtered and sprayed in 20 μL shots into 13×100 mm polyethyleneterephthalate (PET) tubes. The tubes were then dried by forced hot air, and evacuated and stoppered.
Tubes were filled with freshly drawn human blood and allowed to clot for between about 1 to about 3.5 minutes (randomized) and then centrifuged. The resulting serum was scored by visual assessment for the presence of a “fibrin mass” in the serum compartment on a scale of 0 to 3, with 3 being the most severe.

For assay [4], the target named is T1, thrombin. Kind of assay: Accelerated stability of sprayed thrombin with protamine (thrombin activity on Stago Compact). Type of assay: biochemical. The conditions noted are these: about 45% relative humidity. On the procedure: A mixture of thrombin (about 1250 U/mL), protamine (about 125 mg/mL or about 62.5 mg/mL), and a siloxane alkoxylate surfactant was prepared in about 20 mM citrate at a pH of about 6.0. About 20 μL of this mixture was sprayed into 13×100 mm PET tubes. The tubes were dried by forced hot air, evacuated, and stored in the refrigerator. At the initiation of the study, the tubes were uncapped and placed in a controlled environmental chamber previously equilibrated to about 50° C. and about 45% relative humidity. At various time intervals, tubes were removed and evaluated for thrombin activity on the Stago Compact coagulation analyzer. The error bars indicate the 95% confidence interval for the thrombin activity with 5 replicates.
When the thrombin activity of subsequent time points were normalized on the initial value, the resulting curves could be used to compare the relative stability of each formulation (see FIG. 5).

Ends that are not written are not given here.

As for `N=C(N)c1ccc(N)cc1` [para-aminobenzamidine], at thrombin [1], the “thrombin stability over time” value is “preserves thrombin stability over time”.

Take “Protamine sulfate (PRRRRSSSRPVRRRRRPRVSRRRRRRGGRRRR; also: sulfate salt) [coagulation controlling agent; ID; NO; 1 in some embodiments]”: the “clotting time as a function of protamine concentration” value in assay [2] is recorded as “decreasing clotting time with increasing protamine concentration”. Moreover, the “performance of the tube (fibrin mass formation)” value in assay [3] is given as “improved the performance of the tube dramatically”. In addition, the “relative stability (thrombin activity normalized on the initial value)” value with thrombin [4] (about 50° C., compared with thrombin formulations without protamine, FIG. 5) was “more stable”. Also, the “thrombin activity over time” value with thrombin [4] (thrombin about 1250 U/mL, protamine about 125 or about 62.5 mg/mL, sprayed and dried in PET tubes, uncapped at about 50° C., FIG. 4) was “better with the protamine than without it”.
